Laboratory results taken from patent publication US10688142B2, “Methods of treatment using a lipid extract of Passiflora seeds concentrated in its unsaponifiable fraction” (Laboratoires Expanscience, priority 2013, dated 2020).
Marks after values point to notes of the source that are not given here.

Key:
Format in all cases: cell-based
collagen I = assay: Expression of dermal matrix components in normal human fibroblasts, real-time quantitative RT-PCR; details: TGFβ1 at 5 ng/ml, 24 hours
Method: (§1) Normal human dermal fibroblasts were incubated for 24 hours in 1 FCS culture medium in the presence of 0.005% and 0.05% Passiflora concentrate or TGFβ1 at 5 ng/ml (standard). After incubation, the total RNAs were extracted, assayed and retro-transcribed. The gene expression of collagen I and elastin were analysed by real-time quantitative RT-PCR.

elastin = assay: as above; details: TGFβ1 at 5 ng/ml, 24 hours
Method: as §1

human mature adipocytes = assay: Lipolysis: release of glycerol by encapsulated mature adipocytes; details: 10 μM forskoline, 4 hours
Method: Human white adipose tissue carries out a fundamental metabolic function by providing the other tissues in the body with energy molecules in the form of fatty acids released by the adipocyte lipolysis process: adipocytes mobilise energy reserves by hydrolysing stored triglycerides to fatty acids and glycerol; the fatty acids thus released into the bloodstream can be used by other tissues for energy purposes. The effect of the Passiflora concentrate on adipocyte lipolysis was evaluated by assay of glycerol released during hydrolysis of the triglycerides stored in human mature adipocytes cultured in 3 dimensions.
Mature adipocytes, derived from biopsies of subcutaneous adipose tissue taken from five donors (normal-weight or overweight) were isolated and encapsulated in peptide gel allowing their survival and biological functionality in culture. The encapsulated mature adipocytes were incubated in the presence of 0.001% or 0.005% Passiflora concentrate, or 10 μM forskoline (standard) for 4 hours.
After incubation, the released glycerol was assayed in the culture medium using an assay kit (Randox), the values obtained were normalised with the amount of DNA evaluated with a kit (Invitrogen).

Molecule | Collagen I gene expression, percentage increase relative to non-treated control (collagen I) | Collagen I (Relative Quantity) (collagen I; control = 1.00) | Elastin gene expression, percentage increase relative to non-treated control (elastin) | Elastin (Relative Quantity) (elastin; control = 1.00) | Stimulation (%) of glycerol release (human mature adipocytes) | Release of glycerol (human mature adipocytes; mean of 5 donors, control 1.00)
TGFβ1: TGFβ1 at 5 ng/ml (standard) in the dermal matrix gene expression test | +30% ns^ | 1.30 | +40% * | 1.40 |  | 
C=C[C@@]1(C)CC(=O)[C@]2(O)[C@@]3(C)[C@@H](O)CCC(C)(C)[C@@H]3[C@H](O)[C@H](OC(C)=O)[C@@]2(C)O1 [Forskoline, forskoline] |  |  |  |  | +660% ** | 6.60 Arbitrary unit
